Data on two compounds can be found in patent US20180228795A1, “COMBINATION THERAPY FOR CANCER” (Eli Lilly and Company, priority 2015, published 2018).

Holding throughout (assay): Antitumor effects in PDX mouse model of TNBC
Common to all, as to assay type: in vivo

One assay deals with PDX TNBC Model CTG-0012. The settings on record: PDX model CTG-0012; A 10 mg/kg SC BID 3 days on/4 off ×4; B 7.5 mg/kg PO BID×28; versus vehicle. From the text:
(§1) Establish PDX tumor models from viable human tumor tissue and serially passage in immunocompromised female mice a limited number of times. Using tumor fragments harvested from donor host animals, perform unilateral subcutaneous implants from a specific passage of the PDX tumor model on the flanks of the experimental animals. When tumor volumes reach approximately 150-250 mm^3 in size, randomize the animals by treatment arm by randomization techniques well known in the art and place into their respective treatment groups using 1 animal per treatment group (3 animals in an untreated group). Formulate CHK1 inhibitor, 5-(5-(2-(3-aminopropoxy)-6-methoxyphenyl)-1H-pyrazol-3-ylamino)pyrazine-2-carbonitrile methanesulfonate hydrate, (Compound A) every 14 days in 20% captisol (dissolved in water) and administer subcutaneously twice daily at a dose of 10 mg/kg on days 1/2/3 of a weekly cycle for 4 weeks (SC, BID [3 days on/4 off]×4). Formulate the PI3K/mTOR dual inhibitor, 8-[5-(1-hydroxy-1-methylethyl)pyridin-3-yl]-1-[(2S)-2-methoxypropyl]-3-methyl-1,3-dihydro-2H-imidazo[4,5-c]quinolin-2-one, (Compound B) weekly in 1% (HEC)/0.25% Tween 80 (Polysorbate 80)/0.05% Dow-Corning Antifoam 1510-US and administer by oral gavage twice-daily for 28 days (PO, BID×28) at a dose of 7.5 mg/kg. Dose combination treatment animals with both compounds according to the schedule described above for monotherapy, and dose vehicle treatment animals with vehicle according to the schedule for Compound B.
(§2) Test the combination of Compound A and Compound B, as well as their respective monotherapies, in 40 PDX models (Table 1) of TNBC. Assess antitumor efficacy of the treatment groups by measuring tumor volume via caliper measurements twice a week during the course of the study. Measure body weight twice weekly during the course of the study as a general indicator of tolerability.
(§3) Capture tumor size and body weight twice per week. Estimate tumor volume (V) by using the formula: V=(π/6)×L×W^2 where L=larger of measured diameter and W=smaller perpendicular diameter. Calculate relative tumor volume using the tumor volume measurement taken nearest to the last day of dosing for each animal (T), divided by the baseline tumor volume for that animal (T0), which is the volume recorded on or just prior to the first day of dosing, Y=T/T0. Calculate % ΔT/ΔC values using the formula % ΔT/ΔC=100(YT−1)/(YC−1), whereby YT or YC=geometric mean relative volume of the compound treated group or the control group, respectively. Tumor growth inhibition is observed in those instances where the calculated values for % ΔT/ΔC are less than 100% whereby greater inhibition results in smaller % ΔT/ΔC values. If ΔT<0, then a tumor regression value is calculated instead of % ΔT/ΔC whereby % Regression=100(YT−1). Note that negative values indicate regression. We collectively refer to % ΔT/ΔC and % Regression as % Response.
(§4) Examine relative tumor volume (final volume divided by baseline volume) on the last day of treatment or the last day on which data from all three treatment groups and vehicle is available, if it is earlier than the last day of treatment and at least 14 days after baseline. Expected additive relative volume is determined using the Bliss method (Bliss, C. I., Ann Appl Biol, 1939; 26(3):585-615). Specifically, denoting Y=relative volume, YExp=(Y1*Y2)/YV, where YExp=expected additive relative volume, Y1 and Y2 are the relative volumes in the single agent groups (Compound A and Compound B), and YV is the relative volume in the vehicle group. A range of additivity is defined around the expected additive relative volume via upper and lower limits as follows:
(§5) Yupper=max(2*YExp,YExp+0.2)
(§6) Ylower=min(YExp/2,YExp−0.2)
(§7) The upper limit of the range is the larger of 2-fold above or 20% above the expected additive relative volume, and the lower limit is the smaller of 2-fold below or 20% below the expected additive relative volume. […]

A further assay concerns PDX TNBC Model CTG-0018. The settings on record: PDX model CTG-0018; A 10 mg/kg SC BID 3 days on/4 off ×4; B 7.5 mg/kg PO BID×28; versus vehicle.
Source text: as §1, §2, §3, §4, §5, §6, §7

Another assay has as its system PDX TNBC Model CTG-0052. The note with it: PDX model CTG-0052; A 10 mg/kg SC BID 3 days on/4 off ×4; B 7.5 mg/kg PO BID×28; versus vehicle.
Source text: as §1, §2, §3, §4, §5, §6, §7

In another assay the test system is PDX TNBC Model CTG-0869. The settings on record: PDX model CTG-0869; A 10 mg/kg SC BID 3 days on/4 off ×4; B 7.5 mg/kg PO BID×28; versus vehicle.
Source text: as §1, §2, §3, §4, §5, §6, §7

The test system of the next assay is PDX TNBC Model CTG-0888. The settings on record: PDX model CTG-0888; A 10 mg/kg SC BID 3 days on/4 off ×4; B 7.5 mg/kg PO BID×28; versus vehicle.
Source text: as §1, §2, §3, §4, §5, §6, §7

The next assay deals with PDX TNBC Model CTG-0986. The settings on record: PDX model CTG-0986; A 10 mg/kg SC BID 3 days on/4 off ×4; B 7.5 mg/kg PO BID×28; versus vehicle.
Source text: as §1, §2, §3, §4, §5, §6, §7

A further assay relates to PDX TNBC Model CTG-1151. The note with it: PDX model CTG-1151; A 10 mg/kg SC BID 3 days on/4 off ×4; B 7.5 mg/kg PO BID×28; versus vehicle.
Source text: as §1, §2, §3, §4, §5, §6, §7

In the next assay the test system is PDX TNBC Model CTG-1167. The settings on record: PDX model CTG-1167; A 10 mg/kg SC BID 3 days on/4 off ×4; B 7.5 mg/kg PO BID×28; versus vehicle.
Source text: as §1, §2, §3, §4, §5, §6, §7

The test system of the next assay is PDX TNBC Model CTG-1340. The note with it: PDX model CTG-1340; A 10 mg/kg SC BID 3 days on/4 off ×4; B 7.5 mg/kg PO BID×28; versus vehicle.
Source text: as §1, §2, §3, §4, §5, §6, §7

For another assay, the system named is PDX TNBC Model CTG-1408. The note with it: PDX model CTG-1408; A 10 mg/kg SC BID 3 days on/4 off ×4; B 7.5 mg/kg PO BID×28; versus vehicle.
Source text: as §1, §2, §3, §4, §5, §6, §7

For a further assay, the system named is PDX TNBC Model ST1077. The settings on record: A 10 mg/kg SC BID 3 days on/4 off ×4, B 7.5 mg/kg PO BID×28, versus vehicle.
Source text: as §1, §2, §3, §4, §5, §6, §7

As to `CO[C@@H](C)Cn1c(=O)n(C)c2cnc3ccc(-c4cncc(C(C)(C)O)c4)cc3c21` [Compound B, 8-[5-(1-hydroxy-1-methylethyl)pyridin-3-yl]-1-[(2S)-2-methoxypropyl]-3-methyl-1,3-dihydro-2H-imidazo[4,5-c]quinolin-2-one], the “% Rsp. (% ΔT/ΔC or % Regression)” value in the assay on PDX TNBC Model CTG-0012 was found to be 49.0%; with PDX TNBC Model CTG-0018, 86.0%; with PDX TNBC Model CTG-0052, 8.6%; in the assay with PDX TNBC Model CTG-0869 it was 64.9%; in the assay on PDX TNBC Model CTG-0888 it was 21.2%; with PDX TNBC Model CTG-0986, 54.6%. Besides, the “% Rsp. (% ΔT/ΔC or % Regression)” value with PDX TNBC Model CTG-1151 came out at 92.5%; with PDX TNBC Model CTG-1167, 65.8%; with PDX TNBC Model CTG-1340, 17.1%; in the assay with PDX TNBC Model CTG-1408 it was 27.5%; in the assay on PDX TNBC Model ST1077, 9.1%.

Take `COc1cccc(OCCCN)c1-c1cc(Nc2cnc(C#N)cn2)n[nH]1.CS(=O)(=O)O` [Compound A, 5-(5-(2-(3-aminopropoxy)-6-methoxyphenyl)-1H-pyrazol-3-ylamino)pyrazine-2-carbonitrile methanesulfonate hydrate]: the “% Rsp. (% ΔT/ΔC or % Regression)” value was 33.4% in the assay on PDX TNBC Model CTG-0012; −57.6% with PDX TNBC Model CTG-0018; 41.3% in the assay with PDX TNBC Model CTG-0052; 52.6% in the assay on PDX TNBC Model CTG-0869; 15.0% with PDX TNBC Model CTG-0888; 32.2% in the assay with PDX TNBC Model CTG-0986. Further, the “% Rsp. (% ΔT/ΔC or % Regression)” value is given as −84.6% in the assay with PDX TNBC Model CTG-1151; 62.3% in the assay on PDX TNBC Model CTG-1167; 41.0% in the assay with PDX TNBC Model CTG-1340; 11.1% in the assay with PDX TNBC Model CTG-1408; 0.0% in the assay with PDX TNBC Model ST1077.
